This note sets out measurements from US20230399342A1 (Incyte Corporation, priority 2022, published 2023).

One assay deals with DGKα (Homo sapiens (Human), UniProt P23743). Nature of the assay: In vitro DGKα inhibition assay (ADP-Glo). The assay is classed as biochemical. Conditions: His-tagged human recombinant enzyme, 0.1 nM DGKα, 50 μM ATP, 20 μM DLG, 90 minute incubation. The method, boiled down: (§1)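 His-tagged human DGKα (0.1 nM, 50 μM ATP) or DGKζ (0.4 nM, 30 μM ATP), each with 20 μM DLG, in Tris pH 7.5 buffer with CHAPS, Mg2+, Ca2+.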
Chain of DGKα (P23743 whole entry): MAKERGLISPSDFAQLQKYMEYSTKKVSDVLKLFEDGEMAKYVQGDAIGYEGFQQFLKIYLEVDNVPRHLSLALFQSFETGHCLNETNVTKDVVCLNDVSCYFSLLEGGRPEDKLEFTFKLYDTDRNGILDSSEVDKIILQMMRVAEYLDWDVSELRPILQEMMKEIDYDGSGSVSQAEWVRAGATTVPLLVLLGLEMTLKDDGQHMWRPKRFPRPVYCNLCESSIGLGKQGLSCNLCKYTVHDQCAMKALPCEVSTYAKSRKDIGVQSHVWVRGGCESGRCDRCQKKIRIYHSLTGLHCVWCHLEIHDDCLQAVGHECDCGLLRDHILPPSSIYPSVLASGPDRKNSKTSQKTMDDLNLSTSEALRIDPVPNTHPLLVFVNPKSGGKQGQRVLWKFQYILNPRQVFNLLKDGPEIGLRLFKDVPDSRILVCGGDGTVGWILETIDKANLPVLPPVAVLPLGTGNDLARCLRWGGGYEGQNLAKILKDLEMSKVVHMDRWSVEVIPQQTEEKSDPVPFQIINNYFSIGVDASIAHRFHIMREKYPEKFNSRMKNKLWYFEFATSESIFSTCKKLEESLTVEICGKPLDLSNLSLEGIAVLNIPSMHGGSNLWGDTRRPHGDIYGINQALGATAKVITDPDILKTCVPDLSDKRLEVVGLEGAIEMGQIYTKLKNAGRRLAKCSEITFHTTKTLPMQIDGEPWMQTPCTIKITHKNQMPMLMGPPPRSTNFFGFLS

The next assay concerns the target DGKζ (Homo sapiens (Human), UniProt Q13574). Nature of the assay: In vitro DGKζ inhibition assay (ADP-Glo). Type of assay: biochemical. Conditions: His-tagged human recombinant enzyme, 0.4 nM DGK, 30 μM ATP, 20 μM DLG, 90 minute incubation. The essentials:
as §1

Chain of DGKζ (Q13574 whole entry): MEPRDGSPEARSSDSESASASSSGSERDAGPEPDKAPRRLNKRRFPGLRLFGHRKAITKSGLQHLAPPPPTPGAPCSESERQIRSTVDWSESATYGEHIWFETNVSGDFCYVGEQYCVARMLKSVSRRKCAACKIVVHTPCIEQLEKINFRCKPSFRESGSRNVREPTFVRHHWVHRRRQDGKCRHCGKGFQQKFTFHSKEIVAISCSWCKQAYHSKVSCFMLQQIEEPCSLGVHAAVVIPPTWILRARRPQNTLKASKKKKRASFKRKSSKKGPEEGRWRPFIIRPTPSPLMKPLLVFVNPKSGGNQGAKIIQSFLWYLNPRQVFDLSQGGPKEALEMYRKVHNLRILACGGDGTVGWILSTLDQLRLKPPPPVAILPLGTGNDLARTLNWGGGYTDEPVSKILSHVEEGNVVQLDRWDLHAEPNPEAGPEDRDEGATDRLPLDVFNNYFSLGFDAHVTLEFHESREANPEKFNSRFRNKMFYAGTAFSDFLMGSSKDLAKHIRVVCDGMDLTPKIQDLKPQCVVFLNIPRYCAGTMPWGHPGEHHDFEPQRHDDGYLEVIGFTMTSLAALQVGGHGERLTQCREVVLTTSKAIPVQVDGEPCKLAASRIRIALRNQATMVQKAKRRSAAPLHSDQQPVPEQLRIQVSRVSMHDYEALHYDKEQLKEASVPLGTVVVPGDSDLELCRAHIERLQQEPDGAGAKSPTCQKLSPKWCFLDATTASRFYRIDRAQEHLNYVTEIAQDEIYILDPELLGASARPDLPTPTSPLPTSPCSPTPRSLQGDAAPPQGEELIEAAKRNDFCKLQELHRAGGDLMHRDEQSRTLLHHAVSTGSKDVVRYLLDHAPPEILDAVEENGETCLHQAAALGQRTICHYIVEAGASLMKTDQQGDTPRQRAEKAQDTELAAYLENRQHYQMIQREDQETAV

`CC(C)[C@H](c1ccc(Cl)cc1)N1C[C@H](C)N(c2nc3nncn3c3c2ncn3CCN(C)C)C[C@H]1C` [Example 91, 2-(4-((2S,5R)-4-((R)-1-(4-chlorophenyl)-2-methylpropyl)-2,5-dimethylpiperazin-1-yl)-1H-[1,2,4]triazolo[3,4-b]purin-1-yl)-N,N-dimethylethan-1-amine]: the 50% inhibitory concentration (IC50) at DGKα is at most 20 nM; at DGKζ, 20 to 200 nM.
On the same counts, the results for `COc1ccc([C@H](c2ccc(C(F)F)cc2)N2C[C@H](C)N(c3nc4nncn4c4c3nc(C)n4C[C@@H]3CCCO3)C[C@H]2C)cc1` [Example 92, 4-((2S,5R)-4-((4-(Difluoromethyl)phenyl)(4-methoxyphenyl)methyl)-2,5-dimethylpiperazin-1-yl)-2-methyl-1-(((S)-tetrahydrofuran-2-yl)methyl)-1H-[1,2,4]triazolo[3,4-b]purine] are at most 20 nM and at most 20 nM.
The corresponding values for `C[C@@H]1CN(c2nc3nncn3c3c2ncn3C[C@@H]2CCCO2)[C@@H](C)CN1C(c1ccc(Cl)cc1)c1ccc(Cl)cc1` [Example 93, 4-((2S,5R)-4-(Bis(4-chlorophenyl)methyl)-2,5-dimethylpiperazin-1-yl)-1-(((S)-tetrahydrofuran-2-yl)methyl)-1H-[1,2,4]triazolo[3,4-b]purine] are at most 20 nM and at most 20 nM.
With `Cc1nc2c(N3C[C@@H](C)N([C@H](c4cccc(F)c4)C(C)C)C[C@@H]3C)nc3nncn3c2n1C[C@@H]1CCCO1` [Example 94, 4-((2S,5R)-4-((S)-1-(3-Fluorophenyl)-2-methylpropyl)-2,5-dimethylpiperazin-1-yl)-2-methyl-1-(((S)-tetrahydrofuran-2-yl)methyl)-1H-[1,2,4]triazolo[3,4-b]purine], the IC50 on DGKα and on DGKζ was at most 20 nM in each case.
For the compound `Cc1nc2c(N3C[C@@H](C)N([C@@H](c4cccc(F)c4)C(C)C)C[C@@H]3C)nc3nncn3c2n1C[C@@H]1CCCO1` [Example 95, 4-((2S,5R)-4-((R)-1-(3-fluorophenyl)-2-methylpropyl)-2,5-dimethylpiperazin-1-yl)-2-methyl-1-(((S)-tetrahydrofuran-2-yl)methyl)-1H-[1,2,4]triazolo[3,4-b]purine], the half-maximal inhibitory concentration (IC50) at DGKα and on DGKζ was at most 20 nM throughout.
Consider `Cc1nc2c(N3C[C@@H](C)N([C@H](c4cccc(Cl)c4)C(C)C)C[C@@H]3C)nc3nncn3c2n1C[C@@H]1CCCO1` [Example 96, 4-((2S,5R)-4-((S)-1-(3-Chlorophenyl)-2-methylpropyl)-2,5-dimethylpiperazin-1-yl)-2-methyl-1-(((S)-tetrahydrofuran-2-yl)methyl)-1H-[1,2,4]triazolo[3,4-b]purine], for which the IC50 on DGKα and at DGKζ was at most 20 nM each time.
In the case of `Cc1nc2c(N3C[C@@H](C)N([C@@H](c4cccc(Cl)c4)C(C)C)C[C@@H]3C)nc3nncn3c2n1C[C@@H]1CCCO1` [Example 97, 4-((2S,5R)-4-((R)-1-(3-chlorophenyl)-2-methylpropyl)-2,5-dimethylpiperazin-1-yl)-2-methyl-1-(((S)-tetrahydrofuran-2-yl)methyl)-1H-[1,2,4]triazolo[3,4-b]purine], the IC50 at DGKα and on DGKζ was at most 20 nM in each case.
On to `COc1cccc([C@H](C(C)C)N2C[C@H](C)N(c3nc4nncn4c4c3nc(C)n4C[C@@H]3CCCO3)C[C@H]2C)c1` [Example 98, 4-((2S,5R)-4-((S)-1-(3-Methoxyphenyl)-2-methylpropyl)-2,5-dimethylpiperazin-1-yl)-2-methyl-1-(((S)-tetrahydrofuran-2-yl)methyl)-1H-[1,2,4]triazolo[3,4-b]purine], for which the IC50 on DGKα and at DGKζ was at most 20 nM throughout.
Regarding `COc1cccc([C@@H](C(C)C)N2C[C@H](C)N(c3nc4nncn4c4c3nc(C)n4C[C@@H]3CCCO3)C[C@H]2C)c1` [Example 99, 4-((2S,5R)-4-((R)-1-(3-methoxyphenyl)-2-methylpropyl)-2,5-dimethylpiperazin-1-yl)-2-methyl-1-(((S)-tetrahydrofuran-2-yl)methyl)-1H-[1,2,4]triazolo[3,4-b]purine], the 50% inhibitory concentration (IC50) on DGKα and at DGKζ was at most 20 nM in each case.
As for `C[C@@H]1CN(c2nc3nncn3c3c2ncn3CCN(C)C)[C@@H](C)CN1C(c1ccc(C(F)F)cc1)c1ccc(C(F)F)cc1` [Example 100, 2-(4-((2S,5R)-4-(Bis(4-(difluoromethyl)phenyl)methyl)-2,5-dimethylpiperazin-1-yl)-1H-[1,2,4]triazolo[3,4-b]purin-1-yl)-N,N-dimethylethan-1-amine], the concentration for half-maximal inhibition (IC50) on DGKα and at DGKζ was at most 20 nM in each case.
In the case of `C[C@@H]1CN(c2nc3nncn3c3c2ncn3CCN(C)C)[C@@H](C)CN1[C@@H](c1ccc(C(F)(F)F)cc1)c1ccc(C(F)(F)F)cn1` [Example 101, 2-(4-((2S,5R)-2,5-Dimethyl-4-((S)-(4-(trifluoromethyl)phenyl)(5-(trifluoromethyl)pyridin-2-yl)methyl)piperazin-1-yl)-1H-[1,2,4]triazolo[3,4-b]purin-1-yl)-N,N-dimethylethan-1-amine], the half-maximal inhibitory concentration (IC50) on DGKα and at DGKζ was at most 20 nM each time.
For the compound `C[C@@H]1CN(c2nc3nncn3c3c2ncn3CCN(C)C)[C@@H](C)CN1[C@H](c1ccc(C(F)(F)F)cc1)c1ccc(C(F)(F)F)cn1` [Example 102, 2-(4-((2S,5R)-2,5-dimethyl-4-((R)-(4-(trifluoromethyl)phenyl)(5-(trifluoromethyl)pyridin-2-yl)methyl)piperazin-1-yl)-1H-[1,2,4]triazolo[3,4-b]purin-1-yl)-N,N-dimethylethan-1-amine], the half-inhibitory concentration (IC50) on DGKα and at DGKζ was at most 20 nM in each case.
On to `Cc1nc2c(N3C[C@@H](C)N(C(c4ccc(Cl)cc4)c4ccc(Cl)cc4)C[C@@H]3C)nc3nncn3c2n1C[C@@H]1CCCO1` [Example 105, 4-((2S,5R)-4-(Bis(4-chlorophenyl)methyl)-2,5-dimethylpiperazin-1-yl)-2-methyl-1-(((S)-tetrahydrofuran-2-yl)methyl)-1H-[1,2,4]triazolo[3,4-b]purine], for which the half-inhibitory concentration (IC50) at DGKα and at DGKζ was at most 20 nM in each case.
Turning to `C[C@@H]1CN(c2nc3nncn3c3c2nnn3C[C@H]2CCCO2)[C@@H](C)CN1C(c1ccc(Cl)cc1)c1ccc(Cl)cc1` [Example 106, 4-((2S,5R)-4-(Bis(4-chlorophenyl)methyl)-2,5-dimethylpiperazin-1-yl)-1-(((R)-tetrahydrofuran-2-yl)methyl)-1H-[1,2,3]triazolo[4,5-e][1,2,4]triazolo[4,3-a]pyrimidine], the IC50 on DGKα and at DGKζ was at most 20 nM in each case.
As to `C[C@@H]1CN(c2nc3nncn3c3c2ncn3CCN(C)C)[C@@H](C)CN1C(c1ccc(Cl)cc1)c1ccc(Cl)cc1` [Example 107, 2-(4-((2S,5R)-4-(Bis(4-chlorophenyl)methyl)-2,5-dimethylpiperazin-1-yl)-1H-[1,2,4]triazolo[3,4-b]purin-1-yl)-N,N-dimethylethan-1-amine], the IC50 on DGKα and on DGKζ was at most 20 nM in each case.
With `Cc1nc2c(N3C[C@@H](C)N(C(c4ccc(Br)cc4)c4ccc(Br)cc4)C[C@@H]3C)nc3nncn3c2n1C[C@@H]1CCCO1` [Example 108, 4-((2S,5R)-4-(Bis(4-bromophenyl)methyl)-2,5-dimethylpiperazin-1-yl)-2-methyl-1-(((S)-tetrahydrofuran-2-yl)methyl)-1H-[1,2,4]triazolo[3,4-b]purine], the IC50 on DGKα and at DGKζ was at most 20 nM each time.
`C[C@@H]1CN(c2nc3nncn3c3c2ncn3CCN(C)C)[C@@H](C)CN1C(c1ccc(Br)cc1)c1ccc(Br)cc1` [Example 109, 2-(4-((2S,5R)-4-(Bis(4-bromophenyl)methyl)-2,5-dimethylpiperazin-1-yl)-1H-[1,2,4]triazolo[3,4-b]purin-1-yl)-N,N-dimethylethan-1-amine]: the IC50 on DGKα and on DGKζ was at most 20 nM in each case.
Take `C[C@@H]1CN(c2nc3nncn3c3c2nnn3C[C@H]2CCCO2)[C@@H](C)CN1C(c1ccc(Br)cc1)c1ccc(Br)cc1` [Example 110, 4-((2S,5R)-4-(Bis(4-bromophenyl)methyl)-2,5-dimethylpiperazin-1-yl)-1-(((R)-tetrahydrofuran-2-yl)methyl)-1H-[1,2,3]triazolo[4,5-e][1,2,4]triazolo[4,3-a]pyrimidine]: the concentration for half-maximal inhibition (IC50) on DGKα and on DGKζ was at most 20 nM throughout.
`C[C@@H]1CN(c2nc3nncn3c3c2nnn3C[C@@H]2CCCO2)[C@@H](C)CN1C(c1ccc(Br)cc1)c1ccc(Br)cc1` [Example 111, 4-((2S,5R)-4-(Bis(4-bromophenyl)methyl)-2,5-dimethylpiperazin-1-yl)-1-(((S)-tetrahydrofuran-2-yl)methyl)-1H-[1,2,3]triazolo[4,5-e][1,2,4]triazolo[4,3-a]pyrimidine]: the IC50 on DGKα and at DGKζ was at most 20 nM throughout.
Turning to `C[C@@H]1CN(c2nc3nncn3c3c2ncn3CCN(C)C)[C@@H](C)CN1C(c1ccc(C(F)(F)F)cn1)c1ccc(C(F)(F)F)cn1` [Example 112, 2-(4-((2S,5R)-4-(Bis(5-(trifluoromethyl)pyridin-2-yl)methyl)-2,5-dimethylpiperazin-1-yl)-1H-[1,2,4]triazolo[3,4-b]purin-1-yl)-N,N-dimethylethan-1-amine], the 50% inhibitory concentration (IC50) at DGKα and on DGKζ was at most 20 nM throughout.
Turning to `Cc1nc2c(N3C[C@@H](C)N(C(c4ccc(F)c(Cl)c4)[C@H]4C[C@H](C(F)(F)F)C4)C[C@@H]3C)nc3nncn3c2n1C[C@@H]1CCCO1` (stereo partly drawn) [Example 113, 4-((2S,5R)-4-((3-Chloro-4-fluorophenyl)((trans)-3-(trifluoromethyl)cyclobutyl)methyl)-2,5-dimethylpiperazin-1-yl)-2-methyl-1-(((S)-tetrahydrofuran-2-yl)methyl)-1H-[1,2,4]triazolo[3,4-b]purine], the IC50 at DGKα and on DGKζ was at most 20 nM throughout.
